According to article PMC6992764 (Nature Communications, 2020):

Key:
[1] = test system: LLC tumor cells; experiment: LLC tumor cell growth (WST-1 assay); assay type: cell-based; conditions: 48 h
Procedure: (§1) To evaluate the effects of compounds on cell growth, cells were incubated with inhibitors for 48 h, then WST-1 (Dojindo) was added to the culture for the final 30 min. An Envision instrument (PerkinElmer) was used to measure the absorbance of each well at 450 nm versus a 650-nm reference to detect the amount of formazan produced from WST-1 by mitochondrial dehydrogenases in viable cells.

[2] = test system: B16 tumor cells; experiment: B16 tumor cell growth (WST-1 assay); assay type: cell-based; conditions: B16, 48 h
Procedure: as §1

[3] = test system: LLC tumor cells
[4] = test system: B16 tumor cells
[5] = target: T1, Full-length FROUNT protein (Homo sapiens, UniProt Q9BW27); experiment: Surface plasmon resonance binding to FROUNT; conditions: SPR, concentration-dependent
T1 construct: made in house
T1 sequence (Q9BW27 1-656): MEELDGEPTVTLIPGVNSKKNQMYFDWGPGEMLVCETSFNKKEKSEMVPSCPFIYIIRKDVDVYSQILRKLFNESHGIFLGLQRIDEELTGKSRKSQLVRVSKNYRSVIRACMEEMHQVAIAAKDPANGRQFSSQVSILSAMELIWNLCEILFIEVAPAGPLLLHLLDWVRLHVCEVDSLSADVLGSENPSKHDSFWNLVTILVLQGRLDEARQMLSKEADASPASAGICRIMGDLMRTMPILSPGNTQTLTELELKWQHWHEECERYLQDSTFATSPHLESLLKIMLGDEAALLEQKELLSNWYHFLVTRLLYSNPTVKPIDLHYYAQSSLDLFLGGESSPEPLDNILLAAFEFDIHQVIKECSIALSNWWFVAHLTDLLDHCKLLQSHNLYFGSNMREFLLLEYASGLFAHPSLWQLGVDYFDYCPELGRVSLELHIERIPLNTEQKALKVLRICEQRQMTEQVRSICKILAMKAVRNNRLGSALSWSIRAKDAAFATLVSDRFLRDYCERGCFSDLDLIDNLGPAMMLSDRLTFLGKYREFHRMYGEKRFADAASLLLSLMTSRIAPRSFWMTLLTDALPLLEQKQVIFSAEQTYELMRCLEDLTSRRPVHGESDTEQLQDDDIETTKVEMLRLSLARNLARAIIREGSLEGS
Procedure: Interactions between FROUNT and library compounds were analyzed by surface plasmon resonance using a Biacore T100 (GE Healthcare). Full-length FROUNT protein or the FROUNT-binding region of CCR2 was immobilized on the CM5 sensor chip[56]. […] The resonance unit (RU) was measured during the binding and washing periods, and the binding kinetics were analyzed. Solvent correction with DMSO was performed using Biacore T100 evaluation software.

[6] = target: T2, CRBD of FROUNT (a.a. 532-656) bearing the L538E/P612S mutations (Homo sapiens, UniProt Q9BW27, L538E/P612S); experiment: NMR titration (1H-15N HSQC) of CRBD of FROUNT; assay type: binding; conditions: 12.5-50 µM compound, 50 µM CRBD
T2 construct: 50 µM CRBD of FROUNT (a.a. 532–656) bearing the L538E/P612S mutations or its mutant (C603S); made in house
T2 sequence (Q9BW27 532-656 L538E/P612S): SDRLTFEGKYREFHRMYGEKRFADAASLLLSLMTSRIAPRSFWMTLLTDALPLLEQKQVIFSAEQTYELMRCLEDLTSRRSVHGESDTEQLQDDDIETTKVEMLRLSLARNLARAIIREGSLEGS
Procedure: All ^1H–^15N heteronuclear single quantum correlation (HSQC) NMR spectra were measured at 25 °C on a Bruker 600-MHz AVANCE III spectrometer with a cryogenic probe. […] The assignments of the backbone ^1H^N and ^15N NMR signals of CRBD were performed, based on the previous paper. […] Combined chemical shift differences Δδ was calculated by Δδ = [(ΔδHN)^2 + (ΔδN/6.5)^2]^1/2, where ΔδHN and ΔδN are the chemical shift differences for ^1H^N and ^15N, respectively.

[7] = target: T3, FROUNT-CCR2 interaction (Homo sapiens, UniProt Q9BW27); experiment: HTRF FROUNT-CCR2 interaction assay; assay type: binding; conditions: HTRF
T3 construct: GST-fused FROUNT (FNT-C)
T3 sequence (Q9BW27 500-656 limits assumed): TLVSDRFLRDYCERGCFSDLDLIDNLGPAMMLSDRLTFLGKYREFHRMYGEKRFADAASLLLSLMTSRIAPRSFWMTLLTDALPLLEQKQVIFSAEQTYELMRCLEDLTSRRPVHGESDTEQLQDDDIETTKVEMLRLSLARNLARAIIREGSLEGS

[8] = test system: THP-1 cells; experiment: Chemotaxis inhibition assay (chemoTX chamber, CCL2); assay type: cell-based, human; conditions: towards CCL2, 90 min
Procedure: Chemotaxis was measured in a 96-well chemoTX chemotaxis chamber with a polycarbonate filter (5-μm pore size) (Neuro probe). Human CCL2 (R&D Systems) was added to the lower chamber of the plate and the cells were added to the upper chamber. After incubation at 37 °C and 5% CO2 for 90 min, the filter was removed and the number of migrated cells in the lower chamber was counted using a cell counting kit F (Dojindo). Data are expressed as migration efficiency (percentage of the maximal migration).

[9] = test system: ALDH; experiment: ALDH activity assay (ALDEFLUOR); assay type: cell-based, human; conditions: THP-1 cells, 33 µM, 30 min
Procedure: THP-1 cells were incubated for 30 min with medium containing DMSO or inhibitors at the concentration of 33 μM then washed and incubated with ALDEFLUOR reagent ([…] Technologies) in assay buffer according to the manufacturer’s instruction. Fluorescence derived from substrate metabolized by cellular ALDH were measured by Gallios cytometer.

[10] = test system: peritoneal macrophages; experiment: CCL2-induced pseudopodia protrusion of macrophages; assay type: cell-based, mice; conditions: 25 µM, 1 h pre-incubation
Procedure: Peritoneal macrophages were isolated from mice, seeded in the 8-well glass-based dishes (Life Technologies) and incubated overnight at 37 °C to allow the cells to adhere. After serum starvation for 6 h, cells were stimulated with chemokine at a concentration of 100 ng mL^–1, then fixed with 4% paraformaldehyde (Wako) and permeabilized with 0.1% Triton X-100 (Wako) in PBS, followed by staining with phalloidin conjugated with Alexa Fluor 594 (Life Technologies). […] Tumor macrophages were isolated from collagenase digestion of tumor tissue as attached cells by washing non-adherent cells away and further culturing them in DMEM containing 10 nM M-CSF (BD Biosciences) and 10% serum. After co-culture with LLC tumor cells, confocal images were obtained using an SP5 confocal microscope (Leica Microsystems). Cells were classified as lamellipodial/round-shaped or filopodial based on their morphology and the ratio of each type in the visual field determined.

[11] = test system: monocyte (CD11b+Gr-1-Ly-6C+) chemotaxis to CCL2; experiment: Flow cytometry-based chemotaxis assay; assay type: cell-based, mice; conditions: 20 µM wortmannin pre-incubation
Procedure: Bone marrow cells were mechanically flushed from the femurs and tibias of Frount-floxed mice and FROUNT-cKO mice. After incubation in ammonium chloride to lyse red blood cells, nucleated cells were incubated with the following antibodies: PE-conjugated Gr-1 (clone RB6-8C5, dilution 1:400, Cat 553128), Pacific blue-conjugated Ly-6C ([…], dilution 1:400, Cat 128014), and allophycocyanin-conjugated CD11b (clone M1/70, dilution 1:400, Cat 101212). Cells were washed and adjusted to 2 × 10^7 cells mL^−1 in chemotaxis buffer. Cells were pre-incubated with 20 μM wortmannin before the assay as necessary. The chemokines murine CCL2 (Peprotech) were added to the lower chamber and 25 μL of cell suspension was added to the upper chamber of a 5-μm pore-sized chemoTX plate. After incubation at 37 °C under 5% CO2 atmosphere for 90 min, migrated cells were collected and cell populations were determined by surface expression of stained antibody in each population using a Gallios flow cytometer (Beckman coulter). Data are expressed as a migration index (number of migrated cells in the presence of chemoattractant divided by the cell number in the absence of chemokine).

Row | Compound | in vitro growth [1] | in vitro growth [2] | viability [3] | viability [4] | other results
1 | O=c1[nH]cc(F)c(=O)[nH]1 [5FU] | affected | affected | affected | affected | 
2 | CCN(CC)C(=S)S [DDC, sodium diethyldithiocarbamate] |  |  |  |  | binding to FROUNT protein [5]: did not bind; chemical shift perturbations in CRBD [6]: no significant perturbation
3 | NC(=O)Nc1sc(-c2ccc(F)cc2)cc1C(N)=O [IKK-IV] | affected | affected | affected | affected | 
4 | N#CN [cyanamide] |  |  |  |  | inhibition of FROUNT-CCR2 interaction [7]: did not block; cellular chemotaxis [8]: did not block; ALDH inhibition activity [9]: more potently than DSF
5 | COC[C@H]1OC(=O)c2coc3c2[C@@]1(C)C1=C(C3=O)[C@@H]2CCC(=O)[C@@]2(C)C[C@H]1OC(C)=O [wortmannin] |  |  |  |  | CCL2-induced pseudopodia protrusion [10]: inhibition; migration in response to CCL2 stimulation [11]: inhibited
